# Data published in ChEMBL document CHEMBL5154783, “Design, synthesis, and evaluation of novel 3-thiophene derivatives as potent fungistatic and fungicidal reagents based on a conformational restriction strategy” (Eur J Med Chem, 2022).
# Active and inactive are the calls of the source. No cut-off for these calls is given here.
# What was measured:
# [1] = Cytotoxicity against human THLE-2 cells assessed as reduction in cell viability incubated for 96 hrs by MTT assay; assay type: toxicity, cell-based
# Candida albicans [2] = assay: Antifungal activity against Candida albicans ATCC SC5314 assessed as fungal growth inhibition by CLSI based serial microbroth dilution method; assay type: functional
# Candida albicans [3] = assay: Antifungal activity against Candida albicans CPCC400616 assessed as fungal growth inhibition by CLSI based serial microbroth dilution method; assay type: functional
# Candida tropicalis = assay: Antifungal activity against Candida tropicalis CGMCC 2.3739 assessed as fungal growth inhibition by CLSI based serial microbroth dilution method; assay type: functional
# Cryptococcus neoformans = assay: Antifungal activity against Cryptococcus neoformans CGMCC 2.3161 assessed as fungal growth inhibition by CLSI based serial microbroth dilution method; assay type: functional
# Candida parapsilosis = assay: Antifungal activity against Candida parapsilosis GIM 2.190 assessed as fungal growth inhibition by CLSI based serial microbroth dilution method; assay type: functional; conditions: Lodderomyces parapsilosis
# Nakaseomyces glabratus = assay: Antifungal activity against Candida glabrata clinical isolate assessed as fungal growth inhibition by CLSI based serial microbroth dilution method; assay type: functional
# Pichia kudriavzevii = assay: Antifungal activity against Candida krusei GIM 2.1 assessed as fungal growth inhibition by CLSI based serial microbroth dilution method; assay type: functional
# Aspergillus fumigatus = assay: Antifungal activity against Aspergillus fumigatus CGMCC 3.7795 assessed as fungal growth inhibition by CLSI based serial microbroth dilution method; assay type: functional
# Candida albicans [4] = assay: Antifungal activity against FLC and ITC-resistant Candida albicans 17 assessed as fungal growth inhibition by CLSI based serial microbroth dilution method; assay type: functional
# Candida albicans [5] = assay: Antifungal activity against FLC-resistant Candida albicans CaR assessed as fungal growth inhibition by CLSI based serial microbroth dilution method; assay type: functional
# Candida albicans [6] = assay: Antifungal activity against FLC-resistant Candida albicans 901 assessed as fungal growth inhibition by CLSI based serial microbroth dilution method; assay type: functional
# Candida albicans [7] = assay: Antifungal activity against FLC-resistant Candida albicans 904 assessed as fungal growth inhibition by CLSI based serial microbroth dilution method; assay type: functional
# Candida albicans [8] = assay: Antifungal activity against FLC-resistant Candida albicans 632 assessed as fungal growth inhibition by CLSI based serial microbroth dilution method; assay type: functional
# Candida albicans [9] = assay: Antifungal activity against FLC-resistant Candida albicans 100 assessed as fungal growth inhibition by CLSI based serial microbroth dilution method; assay type: functional
# Candida albicans [10] = assay: Antifungal activity against FLC-resistant Candida albicans 103 assessed as fungal growth inhibition by CLSI based serial microbroth dilution method; assay type: functional
# Candida albicans [11] = assay: Antifungal activity against FLC-resistant Candida albicans 311 assessed as fungal growth inhibition by CLSI based serial microbroth dilution method; assay type: functional
# [12] = target: T1, Lanosterol 14-alpha demethylase (Candida albicans (strain SC5314 / ATCC MYA-2876) (Yeast), UniProt P10613); assay: Inhibition of CYP51 in Candida albicans ATCC SC5314 assessed as lanosterol level at 0.25 ug/ml measured after 18 hrs by GC-MS analysis relative to control; parameters: scale not given: the % may be the effect or the level left; conditions: at 0.25 µg/mL
# [13] = target: T1, Lanosterol 14-alpha demethylase; assay: Inhibition of CYP51 in Candida albicans ATCC SC5314 assessed as ergosterol level at 0.25 ug/ml measured after 18 hrs by GC-MS analysis (reference value: 96.93 %); parameters: scale not given: the % may be the effect or the level left; conditions: at 0.25 µg/mL
# [14] = target: T1, Lanosterol 14-alpha demethylase; assay: Inhibition of CYP51 in Candida albicans ATCC SC5314 assessed as eburicol level at 0.25 ug/ml measured after 18 hrs by GC-MS analysis relative to control; parameters: scale not given: the % may be the effect or the level left; conditions: at 0.25 µg/mL
# [15] = target: T1, Lanosterol 14-alpha demethylase; assay: Inhibition of CYP51 in Candida albicans ATCC SC5314 assessed as 14alpha-methylergosta-8,24(28)-dien-3beta-6alpha-diol level at 0.25 ug/ml measured after 18 hrs by GC-MS analysis relative to control; parameters: scale not given: the % may be the effect or the level left; conditions: at 0.25 µg/mL
# [16] = target: T1, Lanosterol 14-alpha demethylase; assay: Inhibition of CYP51 in Candida albicans ATCC SC5314 assessed as unknown sterol level at 0.25 ug/ml measured after 18 hrs by GC-MS analysis (reference value: 3.07 %); parameters: scale not given: the % may be the effect or the level left; conditions: at 0.25 µg/mL
# Cell membrane [17] = assay: Disruption of membrane integrity in Candida albicans ATCC SC5314 assessed as rupture of fungal cells at 16 ug/ml incubated for 48 hrs by transmission electron microscopy; assay type: subcellular; conditions: dose 16.0 µg/ml
# Cell membrane [18] = assay: Disruption of membrane integrity in Candida albicans ATCC SC5314 assessed as cell membrane damage at 16 ug/ml incubated for 48 hrs by transmission electron microscopy; assay type: subcellular; conditions: dose 16.0 µg/ml
# Cell membrane [19] = assay: Disruption of membrane integrity in Candida albicans ATCC SC5314 assessed as endogenous substances leakage at 16 ug/ml incubated for 48 hrs by transmission electron microscopy; assay type: subcellular; conditions: dose 16.0 µg/ml
# Candida albicans [20] = assay: Antibiofilm activity against Candida albicans […] assessed as inhibition of […] metabolism within the biofilm measured after 3 hrs by XTT reduction assay; assay type: functional
# Candida albicans [21] = assay: Antibiofilm activity against Candida albicans […] assessed as inhibition of […] metabolism within the biofilm measured after 6 hrs by XTT reduction assay; assay type: functional
# Candida albicans [22] = assay: Antibiofilm activity against Candida albicans […] assessed as inhibition of […] metabolism within the biofilm measured after 18 hrs by XTT reduction assay; assay type: functional
# Candida albicans [23] = assay: Antibiofilm activity against Candida albicans […] assessed as inhibition of […] metabolism activity in the biofilm measured after 24 hrs by XTT reduction assay; assay type: functional
# Candida albicans [24] = assay: Antibiofilm activity against Candida albicans […] assessed as inhibition of […] metabolism activity in the biofilm measured after 48 hrs by XTT reduction assay; assay type: functional
# Candida albicans [25] = assay: Fungicidal activity against Candida albicans CPCC400616 measured after 48 hrs; assay type: functional
# A549 = assay: Cytotoxicity against human A549 cells assessed as reduction in cell viability incubated for 96 hrs by MTT assay; assay type: functional, cell-based; conditions: A549, 96 h
# MCF7 = assay: Cytotoxicity against human MCF7 cells assessed as reduction in cell viability incubated for 96 hrs by MTT assay; assay type: functional, cell-based; conditions: MCF7, 96 h
# [26] = Cytotoxicity against human HepG2 cells assessed as reduction in cell viability incubated for 96 hrs by MTT assay; assay type: toxicity, cell-based
# RAW264.7 = assay: Cytotoxicity against mouse RAW264.7 cells assessed as reduction in cell viability incubated for 96 hrs by MTT assay; assay type: functional, cell-based; conditions: RAW264.7, 96 h
# Cell membrane [27] = assay: Disruption of membrane integrity in Candida albicans ATCC SC5314 assessed as cell wall damage at 16 ug/ml incubated for 48 hrs by transmission electron microscopy; assay type: subcellular; conditions: dose 16.0 µg/ml
# [28] = Stability of the compound in human plasma assessed as parent compound remaining after […] by LC-MS/MS analysis; assay type: ADME, cell-free; conditions: read-out: Stability
# [29] = Stability of the compound in human plasma assessed as parent compound remaining after 120 hrs by LC-MS/MS analysis; assay type: ADME, cell-free; conditions: read-out: Stability
# [30] = Stability of the compound in human plasma assessed as half life measured after […] by LC-MS/MS analysis; assay type: ADME, cell-free
# T1 sequence (P10613 whole entry): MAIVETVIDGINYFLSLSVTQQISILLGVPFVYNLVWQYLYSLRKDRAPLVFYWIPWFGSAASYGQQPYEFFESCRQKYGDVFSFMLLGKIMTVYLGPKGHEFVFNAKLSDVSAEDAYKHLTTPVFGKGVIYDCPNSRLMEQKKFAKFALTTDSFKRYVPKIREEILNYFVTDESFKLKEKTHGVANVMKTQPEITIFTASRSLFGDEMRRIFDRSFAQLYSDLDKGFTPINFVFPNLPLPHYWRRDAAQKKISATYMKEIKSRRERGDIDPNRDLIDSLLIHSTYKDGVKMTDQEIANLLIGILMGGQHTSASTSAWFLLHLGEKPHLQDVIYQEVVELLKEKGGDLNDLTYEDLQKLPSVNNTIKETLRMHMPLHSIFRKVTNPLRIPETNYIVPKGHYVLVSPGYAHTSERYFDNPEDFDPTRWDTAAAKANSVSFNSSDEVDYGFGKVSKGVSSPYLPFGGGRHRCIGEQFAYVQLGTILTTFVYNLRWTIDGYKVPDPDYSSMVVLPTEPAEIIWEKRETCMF
Structure (SMILES),IC50 at 96 h [1],MIC (Candida albicans [2]),MIC (Candida albicans [3]),MIC (Candida tropicalis),MIC (Cryptococcus neoformans),MIC (Candida parapsilosis),MIC (Nakaseomyces glabratus),MIC (Pichia kudriavzevii),MIC (Aspergillus fumigatus),MIC (Candida albicans [4]),MIC (Candida albicans [5]),MIC (Candida albicans [6]),MIC (Candida albicans [7]),MIC (Candida albicans [8]),MIC (Candida albicans [9]),MIC (Candida albicans [10]),MIC (Candida albicans [11]),Activity (Cell membrane [17]),Activity (Cell membrane [18]),Activity (Cell membrane [19]),further results
OC(Cn1cncn1)(Cn1cncn1)c1ccc(F)cc1F [FLUCONAZOLE],> 50 µM,0.5 mg/L,1 mg/L,0.5 mg/L,4 mg/L,2 mg/L,4 mg/L,8 mg/L,> 64 mg/L,> 64 mg/L,> 64 mg/L,64 mg/L,32 mg/L,> 64 mg/L,> 64 mg/L,> 64 mg/L,> 64 mg/L,Active,Active,Active,Activity [12]: 34.42%; Activity [13]: 3.15%; Activity [14]: 29.02%; Activity [15]: 22.35%; Activity [16]: 1.59%; MIC50 (Candida albicans [20]): 16 mg/L; MIC50 (Candida albicans [21]): 32 mg/L; MIC50 (Candida albicans [22]): 64 mg/L; MIC50 (Candida albicans [23]): > 64 mg/L; MIC50 (Candida albicans [24]): > 64 mg/L; MFC (Candida albicans [25]): > 64 mg/L; IC50 (A549): > 50 µM; IC50 (MCF7): > 50 µM; IC50 at 96 h [26]: > 50 µM; IC50 (RAW264.7): > 50 µM; Activity (Cell membrane [27]): Active
Fc1cccc(F)c1CC1(Cn2ccnc2)COC(c2ccc(-c3ccsc3)cc2)=N1 (stereo not given),22.6 µM,0.06 mg/L,0.015 mg/L,0.015 mg/L,0.125 mg/L,0.125 mg/L,0.06 mg/L,0.25 mg/L,8 mg/L,8 mg/L,1 mg/L,0.5 mg/L,2 mg/L,4 mg/L,4 mg/L,2 mg/L,8 mg/L,Active,Active,Active,MIC50 (Candida albicans [20]): 0.25 mg/L; MIC50 (Candida albicans [21]): 0.5 mg/L; MIC50 (Candida albicans [22]): 4 mg/L; MIC50 (Candida albicans [23]): 32 mg/L; MIC50 (Candida albicans [24]): > 64 mg/L; MFC (Candida albicans [25]): 1 mg/L; IC50 (A549): > 50 µM; IC50 (MCF7): > 50 µM; IC50 at 96 h [26]: 34.2 µM; IC50 (RAW264.7): 7.58 µM; remaining [28]: 88.5%; remaining at 120 h [29]: 90.1%; half-life [30]: > 4.8 h; Activity (Cell membrane [27]): Active
